# Source: patent US20260256751A1, “COMBINATION OF BETA-2-ADRENERGIC RECEPTOR AGONISTS AND GLP-1 RECEPTOR AGONISTS FOR USE IN TREATING HYPERGLYCAEMIA” (ATROGI AB, priority 2023, published 2026)
# Columns and labels:
# [1] = test system: differentiated L6-myotubes; experiment: cAMP production relative to isoprenaline (Biological example 2 of WO 2019/053427); assay type: cell-based; conditions: 0.25 h, compound at 10 μM, activity relative to isoproterenol at 10 μM
# Outline: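 Values are cAMP levels relative to isoprenaline at equal concentration (final 1×10^−5 M for both). Stimulation lasted 15 min in differentiated L6 myotubes, using HBSS buffer (pH 7.4) containing 1 mM IBMX, 5 mM HEPES and 1% BSA.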
# [2] = test system: differentiated L6-myotubes; experiment: Glucose uptake screen (Biological example 1 of WO 2019/053427); assay type: cell-based; conditions: compound at 10 μM, activity relative to isoproterenol at 10 μM, read-out: Biological example 1 of WO 2019/053427 (GU)
# Outline: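 Uptake was read out as ^3H-2-deoxyglucose (50 nM, 10 min) radioactivity in NaOH lysates. Beforehand, overnight-starved, differentiated L6 myotubes received compound at 1×10^−5 M with ICI-118551 present for 1 h 40 min, followed by fresh agonist for a further 20 min in glucose-free medium.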
Compound,Emax at 10 µM [1] [%],Emax at 10 µM [2] [%]
"CC1(C)CCC[C@@H]([C@@H](O)c2cccc(F)c2)N1 [Compound 191, (S)-[(S)-6,6-dimethyl-2-piperidyl](m-fluorophenyl)methanol]",< 25,25 to 50
CO[C@H]1CC[C@@H](CCC(C)(C)NC[C@H](O)c2cncc(F)c2)CC1 [Compound 266],< 25,> 75
"CC12CCC([C@H](O)c3ccccc3F)(CC1)N2 [Compound 181, (R)-(o-fluorophenyl)(4-methyl-7-azabicyclo[2.2.1]hept-1-yl)methanol]",< 25,> 75
"CCCC(C)NCC(O)c1ccc(O)cc1 (stereo not drawn) [Compound 8, 1-(p-hydroxyphenyl)-2-(1-methylbutylamino)-1-ethanol]",25 to 50,50 to 75
"O[C@@H](c1cccc(F)c1)C12CCC(Cc3ccccc3)(CC1)N2 [Compound 389, (S)-(4-benzyl-7-azabicyclo[2.2.1]hept-1-yl)(m-fluorophenyl)methanol]",< 25,50 to 75
"COC(=O)[C@H]1CC[C@@H](C(C)(C)NC[C@H](O)c2cncc(F)c2)CC1 [Compound 321, (1S,4s)-8-[(R)-2-(5-fluoro-3-pyridyl)-2-hydroxyethylamino]-7-methoxy-p-menthan-7-one]",< 25,50 to 75
"CC(C)(C[C@H]1CC[C@@H](S(N)(=O)=O)CC1)NC[C@H](O)c1cncc(F)c1 [Compound 519, (1S,4s)-4-{2-[(R)-2-(5-fluoro-3-pyridyl)-2-hydroxyethylamino]-2-methylpropyl}cyclohexanesulfonamide]",< 25,> 75
O[C@H](c1cncc(F)c1)C12CCC(C/C=C/c3ccccc3)(CC1)N2 [Compound 530],25 to 50,> 75
"CC(=O)N[C@H]1CC[C@@H](CC(C)(C)NC[C@H](O)c2cccc(C#N)n2)CC1 [Compound 421, N-[(1R,4s)-4-{2-[(S)-2-(6-cyano-2-pyridyl)-2-hydroxyethylamino]-2-methylpropyl}cyclohexyl]acetamide]",< 25,> 75
"O[C@@H](CNCCC[C@H]1CC[C@@H](O)CC1)c1cncc(F)c1 [Compound 304, (R)-1-(5-fluoro-3-pyridyl)-2-{3-[(1s,4R)-4-hydroxycyclohexyl]propylamino}-1-ethanol]",< 25,50 to 75
"CCCC(C)NCC(O)c1cc(Cl)c(N)c(C(F)(F)F)c1 (stereo not drawn) [Compound 33, 1-[4-amino-3-chloro-5-(trifluoromethyl)phenyl]-2-(1-methylbutylamino)-1-ethanol]",> 75,50 to 75
"CC(C)(C[C@H]1CC[C@@H](C#N)CC1)NC[C@H](O)c1cccc(F)c1 [Compound 399, (1S,4s)-4-{2-[(R)-2-(m-fluorophenyl)-2-hydroxyethylamino]-2-methylpropyl)cyclohexanecarbonitrile]",25 to 50,> 75
"O[C@@H](CNCCC[C@H]1CC[C@@H](OCc2ccccc2)CC1)c1cncc(F)c1 [Compound 275, (R)-1-(5-fluoro-3-pyridyl)-2-{3-[(1s,4R)-4-(benzyloxy)cyclohexyl]pro-pylamino}-1-ethanol]",< 25,50 to 75
"CC(C)(C[C@H]1CC[C@H](NC(=O)OC(C)(C)C)CC1)NC[C@H](O)c1cccc(C(F)(F)F)n1 [Compound 459, (1S,4r)-4-(2-{(S)-2-hydroxy-2-[6-(trifluoromethyl)-2-pyridyl]ethylamino}-2-methylpropyl)cyclohexyl 2-methyl-2-propanecabamate]",< 25,> 75
"CS(=O)(=O)N(Cc1ccccc1)[C@H]1CC[C@H](C[C@@H]2CC[C@H]([C@@H](O)c3cccc(F)c3)N2)CC1 [Compound 503, (S)-[(2R,5S)-5-({(1r,4S)-4-[(benzyl)-N-mesylamino]cyclohexyl}methyl)-2-pyrrolidinyl](m-fluorophenyl)methanol]",< 25,< 25
"CCCCNC[C@H](O)c1csc(N)n1 [Compound 71, (S)-1-(2-amino-1,3-thiazol-4-yl)-2-(butylamino)-1-ethanol]",< 25,25 to 50
"O[C@H](c1cccc(F)c1)C12CCC(CCc3ccc(OC(F)(F)F)cc3)(CC1)N2 [Compound 546, (R)-(m-fluorophenyl){4-[2-(p-trifluoromethoxyphenyl)ethyl]-7-azabicyclo[2.2.1]hept-1-yl}methanol]",< 25,< 25
"CC1(C)CC[C@@H]([C@H](O)c2cccc(F)c2)N1 [Compound 144, (R)-[(S)-5,5-dimethyl-2-pyrrolidinyl](m-fluorophenyl)methanol]",< 25,< 25

Compound,Emax at 10 µM [1] [%],Emax at 10 µM [2] [%]
"C[C@H]1CC[C@@H]([C@H](O)c2ccccc2)N1 (racemic) [Compound 38, Racemic mixture of (R)-[(2S,5S)-5-methyl-2-pyrrolidinyl]phenylmeth-anol and (S)-[(2R,5R)-5-methyl-2-pyrrolidinyl]phenylmeth-anol]",< 25,25 to 50
"CC(C)(C)NC[C@H](O)c1ccncc1F [Compound 108, (R)-2-(tert-butylamino)-1-(3-fluoro-4-pyridyl)-1-ethanol]",< 25,25 to 50
"CC1(C)C[C@H]([C@H](O)c2cccc(F)c2)N1 [Compound 198, (R)-[(R)-4,4-dimethyl-2-azetidinyl](m-fluorophenyl)methanol]",25 to 50,> 75
"O[C@@H](c1cccc(F)c1)C12CCC(CCc3ccc(OC(F)(F)F)cc3)(CC1)N2 [Compound 544, (S)-(m-fluorophenyl){4-[2-(p-trifluoromethoxyphenyl)ethyl]-7-azabicyclo[2.2.1]hept-1-yl}methanol]",< 25,< 25
"CC(C)(C[C@H]1CC[C@@H](O)CC1)NC[C@H](O)c1cncc(F)c1 [Compound 301, (R)-2-{1,1-dimethyl-2-[(1s,4S)-4-hydroxycyclohexyl]ethylamino}-1-(5-fluoro-3-pyridyl)-1-ethanol]",< 25,> 75
"CCC[C@@H](C)NC[C@H](O)c1ccc(O)cc1 [Compound 27, (R)-2-[(R)-1-methylbutylamino]-1-(p-hydroxyphenyl)-1-ethanol]",25 to 50,> 75
"CCCCNC[C@H](O)c1cccc(N)c1F [Compound 90, (R)-1-(3-amino-2-fluorophenyl)-2-(butylamino)-1-ethanol]",< 25,50 to 75
"CC(C)(NC[C@H](O)c1cncc(F)c1)[C@H]1CC[C@H](OCc2ccccc2)CC1 [Compound 281, (R)-1-(5-fluoro-3-pyridyl)-2-{1-methyl-1-[(1r,4R)-4-(benzyloxy)cyclohexyl]eth-ylamino}-1-ethanol]",< 25,50 to 75
"CC(=O)N(C)[C@H]1CC[C@H](CC(C)(C)NC[C@H](O)c2cccc(F)c2)CC1 [Compound 491, N-[(1R,4r)-4-{2-[(R)-2-(m-fluorophenyl)-2-hydroxyethylamino]-2-methylpropyl}cyclohexyl]-N-methylacetamide]",< 25,> 75
"CS(=O)(=O)Nc1ccc(CC23CCC([C@H](O)c4cccc(F)c4)(CC2)N3)cc1 [Compound 475, (R)-(m-fluorophenyl)(4-{[p-(mesylamino)phenyl]methyl}-7-azabicyclo[2.2.1]hept-1-yl)methanol]",< 25,50 to 75
"CC(=O)N[C@H]1CC[C@H](C(C)(C)NC[C@H](O)c2cncc(F)c2)CC1 [Compound 346, N-[(1R,4r)-4-{1-[(R)-2-(5-fluoro-3-pyridyl)-2-hydroxyethylamino]-1-methylethyl}cyclohexyl]acetamide]",< 25,> 75
"CCC[C@@H]1CC[C@@H]([C@H](O)c2cccc(F)c2)N1 [Compound 132, (R)-[(2S,5R)-5-propyl-2-pyrrolidinyl](m-fluorophenyl)methanol]",< 25,25 to 50
"CCCCNCC(O)c1cc(Cl)c(N)c(Cl)c1 (stereo not drawn) [Compound 29, 1-(4-amino-3,5-dichlorophenyl)-2-(butylamino)-1-ethanol]",25 to 50,> 75
"CC1(C)CC[C@H]([C@H](O)c2ccccc2F)N1 [Compound 175, (R)-[(R)-5,5-dimethyl-2-pyrrolidinyl](o-fluorophenyl)methanol]",25 to 50,> 75
"CO[C@H]1CCC[C@@H](C(C)(C)NC[C@H](O)c2cncc(F)c2)C1 [Compound 270, (R)-2-{1-[(1R,3S)-3-methoxycyclohexyl]-1-methylethylamino}-1-(5-fluoro-3-pyridyl)-1-ethanol]",50 to 75,> 75
"CC(C)(CC[C@H]1CC[C@@H](C(=O)O)CC1)NC[C@H](O)c1cncc(F)c1 [Compound 347, (1S,4s)-4-{3-[(R)-2-(5-fluoro-3-pyridyl)-2-hydroxyethylamino]-3-methylbutyl}cyclohexanecarboxylic acid]",< 25,> 75
"COc1ccc(C[C@H]2CC[C@H]([C@@H](O)c3cccc(F)c3)N2)cc1 [Compound 375, (S)-{(2R,5R)-5-[(p-methoxyphenyl)methyl]-2-pyrrolidinyl}(m-fluorophenyl)methanol]",< 25,> 75
"CC(C)(C)NC[C@H](O)c1ccc(F)cn1 [Compound 96, (S)-2-(tert-butylamino)-1-(5-fluoro-2-pyridyl)-1-ethanol]",< 25,50 to 75
